Assay results taken from article PMC9572521, “Synthesis, Docking Studies and Pharmacological Evaluation of Serotoninergic Ligands Containing a 5-Norbornene-2-Carboxamide Nucleus” (Molecules, 2022).
Entries after “also recorded” stand apart in the source; their conditions may differ.

Tests used:
Assay type in all cases: in vivo, mouse
mice [1] = assay: Chimney test (motor coordination); details: 60 min before the test
Experimental: (§1) The experiments were carried out, in the Experimental Medicine Center of Medical University of Lublin, on six-week-old naive male Swiss mice, weighing 24–30 g. The mice were housed in cages, five individuals per cage in an environmentally controlled rooms (ambient temperature 22 ± 1 °C; relative humidity 50–60%; 12 h light/dark cycle, lights on at 8:00). Standard laboratory food(LSM-Agropol-Motycz, Lublin, Poland) and filtered water were available ad libitum. All the experimental procedures were carried out, according to the National Institute of Health Guidelines for the Care and Use of Laboratory Animals and to the European Community Council Directive for the Care and Use of Laboratory Animals of 22 September 2010 (2010/63/EU) and approved by the Local Ethics Committee for Animal Experimentation in Lublin. The investigated compounds (Norbo-4, Norbo-8, Norbo-10, Norbo-14, Norbo-18 and Norbo-20) in all tests were administered intraperitoneally (i.p.), dissolved in dimethyl sulfoxide (DMSO, final concentration of 0.1%) and then diluted by aqueous solution of 0.5% methylcellulose (tylose) and injected 60 min before the tests. […] All compounds were given in a volume of 10 mL/kg to mice. The control animals received an equivalent volume of the solvent at the respective time before the tests. All the experiments were conducted in the light phase between 09.00 a.m. and 14.00 p.m. The experiments were performed by an observer unaware of the treatment administered. The effects of investigated compounds on motor coordination were evaluated in the rota-rod and chimney tests. In the first test, motor impairments were measured, defined as the inability to keep balance on a rotating rod (at constant speed of 18 rpm) for 1 min. In the second test, motor impairments were assessed by mouse inability to climb up the tube backwards (3 cm in inner diameter, 25 cm long) within 60 s. Before the tests, the animals were trained once a day for 3 days. The animals able to stay on the rotating rod or to leave the chimney for 60 s were approved for experiments.

mice [2] = assay: Forced swim test (FST, Porsolt's test); details: 60 min before the test
Experimental: as §1, with “The experiment was carried out according to the method” for “The effects”, “of Porsolt et al.. Mice were individually placed in a glass cylinder (25 cm high; 10 cm in diameter) containing water maintained at 23–25 °C, and were left there for 6 min. The total duration of immobility was recorded during the last 4 min of a 6-min test session. A mouse was regarded as immobile when it remained floating” for “of investigated compounds”, “on” for “on motor coordination were evaluated in”, “the water, making only small movements” for “the rota-rod and chimney tests. In the first test, motor impairments were measured, defined as the inability”, “keep its head above” for “keep balance on a rotating rod (at constant speed of 18 rpm) for 1 min. In”, “the water.” for “the second test, motor impairments were assessed by mouse inability to climb up the tube backwards (3 cm in inner diameter, 25 cm long) within 60 s. Before the tests, the animals were trained once a day for 3 days. The animals able to stay on the rotating rod or to leave the chimney for 60 s were approved for experiments.”

mice [3] = assay: Elevated plus-maze test (EPM); details: 60 min before the test
Experimental: The experiments were carried out, in the Experimental Medicine Center of Medical University of Lublin, on six-week-old naive male Swiss mice, weighing 24–30 g. The mice were housed in cages, five individuals per cage in an environmentally controlled rooms (ambient temperature 22 ± 1 °C; relative humidity 50–60%; 12 h light/dark cycle, lights on at 8:00). Standard laboratory food(LSM-Agropol-Motycz, Lublin, Poland) and filtered water were available ad libitum. All the experimental procedures were carried out, according to the National Institute of Health Guidelines for the Care and Use of Laboratory Animals and to the European Community Council Directive for the Care and Use of Laboratory Animals of 22 September 2010 (2010/63/EU) and approved by the Local Ethics Committee for Animal Experimentation in Lublin. The investigated compounds (Norbo-4, Norbo-8, Norbo-10, Norbo-14, Norbo-18 and Norbo-20) in all tests were administered intraperitoneally (i.p.), dissolved in dimethyl sulfoxide (DMSO, final concentration of 0.1%) and then diluted by aqueous solution of 0.5% methylcellulose (tylose) and injected 60 min before the tests. […] All compounds were given in a volume of 10 mL/kg to mice. The control animals received an equivalent volume of the solvent at the respective time before the tests. All the experiments were conducted in the light phase between 09.00 a.m. and 14.00 p.m. The experiments were performed by an observer unaware of the treatment administered. The EPM studies were carried out on mice according to the method of Lister. The EPM apparatus was made of plexiglass and consisted of two open (30 × 5 cm) and two enclosed (30 × 5 × 15 cm) arms. The arms extended from a central platform of 5 × 5 cm. The apparatus was mounted on a plexiglass base, raising it 38.5 cm above the floor, and illuminated by a red light. The test consisted of placing a mouse in the center of the apparatus (facing an open arm) and allowing it to freely explore. The number of entries into the open arms and the time spent in these arms were scored for a 5 min test period. An entry was defined as placing all four paws within the boundaries of the arm. The following measures were obtained from the test: the total number of arm entries; the percentage of arm entries into the open arms; and the time spent in the open arms expressed as a percentage of the time spent in both the open and closed arms. Anxiolytic activity was indicated by increases in the time spent in open arms and in the number of open arm entries. The total number of entries into either type of arm was used additionally as a measure of overall motor activity.

mice [4] = assay: Rota-rod test (motor coordination); details: 30 mg/kg i.p., 60 min before the test
Experimental: as §1

## Cc1cccc(N2CCN(CCCNC(=O)C3CC4C=CC3C4)CC2)c1C (stereo not drawn) [Norbo-4, endo-N-(3-(4-(2,3-dimethylphenyl)piperazin-1-yl)propyl)bicyclo[2.2.1]hept-5-ene-2-carboxamide]
Mice [1]; 15 mg/kg i.p.
  time in chimney: significant increase of time in chimney
Mice [1]; 30 mg/kg i.p.
  time in chimney: significant increase of time in chimney; also recorded: disturbed the behavior of mice
Mice [2]; 3.75 mg/kg i.p.
  immobility time in FST: significant reduction in immobility time; also recorded: significant reduction of immobility time
Mice [2]; 15 mg/kg i.p.
  immobility time in FST: significant reduction in immobility time; also recorded: significant reduction of immobility time
Mice [2]; 30 mg/kg i.p.
  immobility time in FST: significant reduction in immobility time
Mice [3]; 3.75 mg/kg i.p.
  percentage of time spent in open arms (EPM): significant increase in time spent in open arms; also recorded: increased the percentage of open arm exploration time
Mice [3]; 15 mg/kg i.p.
  percentage of the open arm entries (EPM): increase the percentage of open arm entries
  percentage of time spent in open arms (EPM): significant increase in time spent in open arms; also recorded: increased the percentage of open arm exploration time
Mice [4]
  time on rota-rod: decreased also time on rota-rod; also recorded: impaired motor coordination
